The assay has as its target T1, M2 receptor (Homo sapiens, UniProt P08172).
T1 sequence (P08172 1-466): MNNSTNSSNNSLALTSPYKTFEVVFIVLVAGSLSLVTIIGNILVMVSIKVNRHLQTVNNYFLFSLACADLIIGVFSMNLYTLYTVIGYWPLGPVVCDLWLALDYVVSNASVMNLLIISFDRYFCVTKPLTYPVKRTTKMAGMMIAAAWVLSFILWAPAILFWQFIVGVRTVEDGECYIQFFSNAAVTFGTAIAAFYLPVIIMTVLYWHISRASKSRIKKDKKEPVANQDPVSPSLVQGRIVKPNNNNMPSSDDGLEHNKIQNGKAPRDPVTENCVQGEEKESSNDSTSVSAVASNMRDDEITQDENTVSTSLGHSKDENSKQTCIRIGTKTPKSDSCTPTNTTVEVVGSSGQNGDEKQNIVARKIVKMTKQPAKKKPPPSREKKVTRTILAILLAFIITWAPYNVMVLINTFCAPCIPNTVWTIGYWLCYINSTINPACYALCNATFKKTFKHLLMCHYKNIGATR
The experiment in a line: Agonist-stimulated GTPγ[35S] binding to Sf9 membranes expressing M2 receptor and individual Gαi/o. The conditions noted are these: for Activation of individual Gi/o Gα types: M2 with GαoA, GαoB, Gαi1, Gαi2, Gαi3; for Operational efficacy lower than the efficacy of CBC: at GαoA and GαoB; for Signalling bias among Gαi/o relative to CBC: RAi / bias factor, CBC reference. It is filed as biochemical. Also noted: host or cells: Sf9 insect cells, baculovirus (pFastBac1 / Bac-to-Bac); membranes. The protocol:
Baculoviral stocks for expression of M2 receptor and individual Gα-subunits of Gi/o G-proteins (GαoA, GαoB, Gαi1, Gαi2, Gαi3) in SF9 cells were generated according to Bac-to-Bac® baculovirus expression system—user guide (https://assets.thermofisher.com/TFS-Assets/LSG/manuals/MAN0000414_BactoBacExpressionSystem_UG.pdf). […] After 96 h at 27 °C, baculoviral viral particles released into the medium were harvested. After centrifugation at 500×g for 10 min to remove detached cells and cell debris, baculoviral stock P0 was ready for amplification. Suspension of Sf9 cells at density 2 × 10^6 cells per ml was infected by baculoviral stock P0 in ratio 1:1000 and after 72 h of growth (in a shaking incubator at 135 rpm and 27 °C) the amplified baculoviral stock P1 was harvested. The cell suspension was centrifugated at 500×g for 10 min to remove cells and cell debris and the supernatant containing a high level of baculoviral particles P1 was collected. FBS to the concentration of 0.5% was added and the stock was stored at 4 °C, protected from light for up to 6 months. For the quantification of baculoviral particles, a plaque assay was used.
Cells were grown in suspension culture in 250 ml Erlenmeyer flasks in Sf-900™ III serum-free medium in an aerated shaking incubator at 27 °C and 135 rpm. Cells were maintained at the density of 1–4 × 10^6 cells per ml. Sf9 cells at the density 2 × 10^6 were co-infected with baculoviral stock for the M2 receptor and a particular Gi/o Gα in the ratio (1:10). […] Infected cells were harvested by centrifugation 1000×g for 10 min. Cell pellets were kept at − 80 °C.
Membranes were prepared as described previously by Randakova et al.[33]. Cells harvested from twenty 100 mm petri dishes (CHO) or 30 ml of cell suspension (Sf9) were suspended in 20 ml of ice-cold incubation medium (100 mM NaCl, 20 mM Na-HEPES, 10 mM MgCl2, pH 7.4) supplemented with 10 mM EDTA and homogenized on ice by two 30‐s strokes using a Polytron homogenizer (Ultra-Turrax; Janke & Kunkel GmbH & Co. KG, IKA-Labortechnik, Staufen, Germany) with a 30 s pause between strokes. Cell homogenates were centrifuged for 5 min at 1000×g to remove whole cells and cell nuclei. The resulting supernatants were centrifuged for 30 min at 30,000×g. Pellets were suspended in a fresh incubation medium, incubated on ice for 30 min, and centrifuged again. The resulting membrane pellets were kept at − 80 °C until assayed within 10 weeks.
Agonist stimulated GTPγ[^35S]binding to membranes from Sf9 cells expressing the M2 receptors in a combination with α-subunit of given Gi/o type (GαoA, GαoB, Gαi1, Gαi2, Gαi3) was measured in 96-well plates in a final volume of 200 µl of incubation medium described above containing 500 pM of GTPγ[^35S] […] Nonspecific binding was determined in the presence of 1 µM nonlabelled GTPγS. Incubations were terminated and processed as described above. Parameters of functional response were calculated according to Eq. (3) after subtraction of non-specific binding.
The basal value of GTPγ[^35S] binding was determined in the absence of the agonist. After subtraction of non-specific binding determined in the presence of 10 μM nonlabelled GTPγS, GTPγ[^35S]binding was divided by the basal value and expressed as folds over basal. […] Then Eq. (3) was fitted to the data using GraphPad. Obtained EMAX and EC50 values were used to calculate RAi values using Eq. (7). To determine τ and KA of the functional responses system EMAX was determined as described earlier. Basal values were subtracted and functional responses were expressed as fractions of system EMAX. […] Obtained τ and KA values were used to calculate the bias factor according to Eq. (8), see below, for each experiment.
Equation (4) was fitted to data by the two-step procedure described earlier[61]
In general terms: GTPγS is a poorly hydrolysed GTP analogue; its binding reports G protein activation.

`C[N+](C)(C)CCOC(N)=O` [CBC, carbachol, reference compound]: the “Activation of individual Gi/o Gα types” value is “activated all Gi/o types”. In addition, the “GTPγ[35S] binding signal at Gi1 as % of GoA” value (M2 + Gi1 vs M2 + GoA) is given as 62%.

Take `c1csc(C[N+]23CCC(CC2)CC3)c1` [JB-8A]: the “Activation of individual Gi/o Gα types” value was “activated GαoA and GαoB only”; the “Operational efficacy lower than the efficacy of CBC” value is given as 20–30 ×.

Take `C[N+]1(Cc2cccs2)CCOCC1` [JB-12-2]: the “Activation of individual Gi/o Gα types” value is recorded as “activated all Gi/o Gα”. Further, the “Signalling bias among Gαi/o relative to CBC” value (M2) was “biased to GαoA”. For the same compound, for the setting “M2, relative to carbachol”, the “Bias GoA vs GoB” value is “more than 5 fold”.

As to `COC(=O)C1=CCCN(Cc2cccs2)C1` [JB-13-1], the “Activation of individual Gi/o Gα types” value is reported as “activated all Gi/o Gα”. Also, the “Signalling bias among Gαi/o relative to CBC” value (M2) is “biased to Gαi3”.

Consider `C[N+]1(Cc2cccs2)CC=CCC1` (centres unmarked) [JR-6, 1-methyl-1-[(thiophen-2-yl)methyl]-1,2,3,6-tetra hydropyridin-1-ium], for which the “Activation of individual Gi/o Gα types” value was “activated GαoA and GαoB only”; the “Operational efficacy lower than the efficacy of CBC” value is “approx 10 ×”. For the setting “M2 + Gi1”, the “GTPγ[35S] binding signal” value was “no signal”. For the same compound, where the note is “M2 + GoA”, the “GTPγ[35S] binding signal relative to the detection limit” value was “more than 20 fold”. Moreover, under “M2”, the “Signalling bias among Gαi/o relative to CBC” value is “absolute selectivity to Gαo with a preference for GαoB”.

Turning to `C[N+]1(Cc2ccc(Cl)s2)CC=CCC1` (centres unmarked) [PN-152, 1-[(5-chlorothiophen-2-yl)methyl]-1-methyl-1,2,3,6-tetrahydropyridin-1-ium], the “Activation of individual Gi/o Gα types” value was “activated GαoA and GαoB only”; the “Operational efficacy lower than the efficacy of CBC” value is on record as about 15 ×. For the same compound, where the note is “M2”, the “Signalling bias among Gαi/o relative to CBC” value was “absolute selectivity to Gαo with a preference for GαoB”.
